Measured values reported in PubChem BioAssay (NCI).
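Each compound was tested at five concentrations against cells in 96-well plates for 48 hours. At the TGI there is no net growth.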

Assays:
Experiment in all cases: DTP human tumour cell line panel, 48 h
786-0 renal = system: 786-0 renal
A498 renal = system: A498 renal
A549 NSCLC = system: A549 NSCLC
ACHN renal = system: ACHN renal
CAKI-1 renal = system: CAKI-1 renal
CCRF-CEM leukemia = system: CCRF-CEM leukemia
DLD-1 colon = system: DLD-1 colon
DMS 114 small cell lung = system: DMS 114 small cell lung
DMS 273 small cell lung = system: DMS 273 small cell lung
EKVX NSCLC = system: EKVX NSCLC
HCT-116 colon = system: HCT-116 colon
HL-60(TB) leukemia = system: HL-60(TB) leukemia
HOP-62 NSCLC = system: HOP-62 NSCLC
HOP-92 NSCLC = system: HOP-92 NSCLC
HT29 colon = system: HT29 colon
IGROV1 ovarian = system: IGROV1 ovarian
K-562 leukemia = system: K-562 leukemia
KM12 colon = system: KM12 colon
KM20L2 colon = system: KM20L2 colon
M14 melanoma = system: M14 melanoma
M19-MEL melanoma = system: M19-MEL melanoma
MALME-3M melanoma = system: MALME-3M melanoma
MOLT-4 leukemia = system: MOLT-4 leukemia
NCI-H226 lung = system: NCI-H226 lung
NCI-H23 lung = system: NCI-H23 lung
NCI-H460 lung = system: NCI-H460 lung
OVCAR-3 ovarian = system: OVCAR-3 ovarian
OVCAR-4 ovarian = system: OVCAR-4 ovarian
OVCAR-5 ovarian = system: OVCAR-5 ovarian
OVCAR-8 ovarian = system: OVCAR-8 ovarian
RXF 393 renal = system: RXF 393 renal
RXF-631 renal = system: RXF-631 renal
SF-268 CNS = system: SF-268 CNS
SF-295 CNS = system: SF-295 CNS
SF-539 CNS = system: SF-539 CNS
SK-MEL-2 melanoma = system: SK-MEL-2 melanoma
SK-MEL-28 melanoma = system: SK-MEL-28 melanoma
SK-MEL-5 melanoma = system: SK-MEL-5 melanoma
SK-OV-3 ovarian = system: SK-OV-3 ovarian
SN12C renal = system: SN12C renal
SNB-19 CNS = system: SNB-19 CNS
SNB-75 CNS = system: SNB-75 CNS
SNB-78 CNS = system: SNB-78 CNS
SR leukemia = system: SR leukemia
SW-620 colon = system: SW-620 colon
TK-10 renal = system: TK-10 renal
U251 CNS = system: U251 CNS
UACC-257 melanoma = system: UACC-257 melanoma
UACC-62 melanoma = system: UACC-62 melanoma
UO-31 renal = system: UO-31 renal
XF 498 CNS = system: XF 498 CNS
COLO 205 colon = system: COLO 205 colon
HCC-2998 colon = system: HCC-2998 colon
HCT-15 colon = system: HCT-15 colon
HOP-18 NSCLC = system: HOP-18 NSCLC
LOX IMVI melanoma = system: LOX IMVI melanoma
LXFL 529 NSCLC = system: LXFL 529 NSCLC
NCI-H522 lung = system: NCI-H522 lung
RPMI-8226 leukemia = system: RPMI-8226 leukemia
BT-549 breast = system: BT-549 breast
DU-145 prostate = system: DU-145 prostate
HS 578T breast = system: HS 578T breast
MCF7 breast = system: MCF7 breast
MDA-MB-231 breast = system: MDA-MB-231 breast
MDA-MB-435 = system: MDA-MB-435
NCI/ADR-RES ovarian = system: NCI/ADR-RES ovarian
PC-3 prostate = system: PC-3 prostate
T-47D breast = system: T-47D breast

O=C(NC1CCCC1=O)c1ccccc1 (configuration not stated)
TGI (786-0 renal): > 100 µM
TGI (A498 renal): > 100 µM
TGI (A549 NSCLC): > 100 µM
TGI (ACHN renal): > 100 µM
TGI (CAKI-1 renal): > 100 µM
TGI (CCRF-CEM leukemia): > 100 µM
TGI (DLD-1 colon): > 100 µM
TGI (DMS 114 small cell lung): > 100 µM
TGI (DMS 273 small cell lung): > 100 µM
TGI (EKVX NSCLC): > 100 µM
TGI (HCT-116 colon): > 100 µM
TGI (HL-60(TB) leukemia): > 100 µM
TGI (HOP-62 NSCLC): > 100 µM
TGI (HOP-92 NSCLC): > 100 µM
TGI (HT29 colon): > 100 µM
TGI (IGROV1 ovarian): > 100 µM
TGI (K-562 leukemia): > 100 µM
TGI (KM12 colon): > 100 µM
TGI (KM20L2 colon): > 100 µM
TGI (M14 melanoma): > 100 µM
TGI (M19-MEL melanoma): > 100 µM
TGI (MALME-3M melanoma): > 100 µM
TGI (MOLT-4 leukemia): > 100 µM
TGI (NCI-H226 lung): > 100 µM
TGI (NCI-H23 lung): > 100 µM
TGI (NCI-H460 lung): > 100 µM
TGI (OVCAR-3 ovarian): > 100 µM
TGI (OVCAR-4 ovarian): > 100 µM
TGI (OVCAR-5 ovarian): > 100 µM
TGI (OVCAR-8 ovarian): > 100 µM
TGI (RXF 393 renal): > 100 µM
TGI (RXF-631 renal): > 100 µM
TGI (SF-268 CNS): > 100 µM
TGI (SF-295 CNS): > 100 µM
TGI (SF-539 CNS): > 100 µM
TGI (SK-MEL-2 melanoma): > 100 µM
TGI (SK-MEL-28 melanoma): > 100 µM
TGI (SK-MEL-5 melanoma): > 100 µM
TGI (SK-OV-3 ovarian): > 100 µM
TGI (SN12C renal): > 100 µM
TGI (SNB-19 CNS): > 100 µM
TGI (SNB-75 CNS): > 100 µM
TGI (SNB-78 CNS): > 100 µM
TGI (SR leukemia): > 100 µM
TGI (SW-620 colon): > 100 µM
TGI (TK-10 renal): > 100 µM
TGI (U251 CNS): > 100 µM
TGI (UACC-257 melanoma): > 100 µM
TGI (UACC-62 melanoma): > 100 µM
TGI (UO-31 renal): > 100 µM
TGI (XF 498 CNS): > 100 µM

CC(C)c1c2[nH]c3ccccc3c2c(C(C)C)c2[nH]c3ccccc3c12
TGI (786-0 renal): > 100 µM
TGI (A498 renal): > 100 µM
TGI (A549 NSCLC): > 100 µM
TGI (ACHN renal): > 100 µM
TGI (CAKI-1 renal): > 100 µM
TGI (CCRF-CEM leukemia): > 100 µM
TGI (COLO 205 colon): > 100 µM
TGI (DLD-1 colon): > 100 µM
TGI (DMS 114 small cell lung): > 100 µM
TGI (DMS 273 small cell lung): > 100 µM
TGI (EKVX NSCLC): > 100 µM
TGI (HCC-2998 colon): > 100 µM
TGI (HCT-116 colon): > 100 µM
TGI (HCT-15 colon): > 100 µM
TGI (HL-60(TB) leukemia): > 62.5 µM
TGI (HOP-18 NSCLC): > 100 µM
TGI (HOP-62 NSCLC): > 100 µM
TGI (HOP-92 NSCLC): > 100 µM
TGI (HT29 colon): > 100 µM
TGI (IGROV1 ovarian): > 100 µM
TGI (K-562 leukemia): > 100 µM
TGI (KM12 colon): > 100 µM
TGI (KM20L2 colon): > 100 µM
TGI (LOX IMVI melanoma): > 100 µM
TGI (LXFL 529 NSCLC): > 100 µM
TGI (M14 melanoma): > 100 µM
TGI (M19-MEL melanoma): > 100 µM
TGI (MALME-3M melanoma): > 100 µM
TGI (MOLT-4 leukemia): > 100 µM
TGI (NCI-H226 lung): > 82.8 µM
TGI (NCI-H23 lung): > 100 µM
TGI (NCI-H460 lung): > 100 µM
TGI (NCI-H522 lung): > 100 µM
TGI (OVCAR-3 ovarian): > 100 µM
TGI (OVCAR-4 ovarian): > 100 µM
TGI (OVCAR-5 ovarian): > 100 µM
TGI (OVCAR-8 ovarian): > 100 µM
TGI (RPMI-8226 leukemia): > 100 µM
TGI (RXF 393 renal): > 100 µM
TGI (RXF-631 renal): > 100 µM
TGI (SF-268 CNS): > 100 µM
TGI (SF-295 CNS): > 100 µM
TGI (SF-539 CNS): > 100 µM
TGI (SK-MEL-2 melanoma): > 100 µM
TGI (SK-MEL-28 melanoma): > 100 µM
TGI (SK-MEL-5 melanoma): > 100 µM
TGI (SK-OV-3 ovarian): > 100 µM
TGI (SN12C renal): > 100 µM
TGI (SNB-19 CNS): > 100 µM
TGI (SNB-75 CNS): > 100 µM
TGI (SNB-78 CNS): > 100 µM
TGI (SR leukemia): > 100 µM
TGI (SW-620 colon): > 100 µM
TGI (TK-10 renal): > 100 µM
TGI (U251 CNS): > 100 µM
TGI (UACC-257 melanoma): > 100 µM
TGI (UACC-62 melanoma): > 100 µM
TGI (UO-31 renal): > 100 µM
TGI (XF 498 CNS): > 100 µM

CN(C)CC1CCCC1=O (configuration not stated)
TGI (786-0 renal): 16 µM
TGI (A498 renal): 27.3 µM
TGI (A549 NSCLC): 49 µM
TGI (ACHN renal): 7.08 µM
TGI (BT-549 breast): 13.8 µM
TGI (CAKI-1 renal): 0.373 µM
TGI (CCRF-CEM leukemia): 0.533 µM
TGI (COLO 205 colon): 1.84 µM
TGI (DLD-1 colon): 1.03 µM
TGI (DMS 114 small cell lung): 2.33 µM
TGI (DMS 273 small cell lung): 3.28 µM
TGI (DU-145 prostate): > 46.9 µM
TGI (EKVX NSCLC): 3.59 µM
TGI (HCC-2998 colon): 4.44 µM
TGI (HCT-116 colon): 2.78 µM
TGI (HCT-15 colon): 2.56 µM
TGI (HL-60(TB) leukemia): 0.374 µM
TGI (HOP-18 NSCLC): 3.16 µM
TGI (HOP-62 NSCLC): 31.3 µM
TGI (HOP-92 NSCLC): 2.97 µM
TGI (HS 578T breast): 56.2 µM
TGI (HT29 colon): 2.06 µM
TGI (IGROV1 ovarian): 21.5 µM
TGI (K-562 leukemia): 0.549 µM
TGI (KM12 colon): 5.85 µM
TGI (KM20L2 colon): 5.32 µM
TGI (LOX IMVI melanoma): 4 µM
TGI (LXFL 529 NSCLC): 1.4 µM
TGI (M14 melanoma): 3.46 µM
TGI (M19-MEL melanoma): 2.33 µM
TGI (MALME-3M melanoma): 2.57 µM
TGI (MCF7 breast): 7.03 µM
TGI (MDA-MB-231 breast): 7.06 µM
TGI (MDA-MB-435): 8.77 µM
TGI (MOLT-4 leukemia): 0.875 µM
TGI (NCI-H226 lung): 30.5 µM
TGI (NCI-H23 lung): 11.7 µM
TGI (NCI-H460 lung): 34.6 µM
TGI (NCI/ADR-RES ovarian): 55.7 µM
TGI (OVCAR-3 ovarian): 2.91 µM
TGI (OVCAR-4 ovarian): 5.58 µM
TGI (OVCAR-5 ovarian): 12.5 µM
TGI (OVCAR-8 ovarian): 8.94 µM
TGI (PC-3 prostate): 22.6 µM
TGI (RPMI-8226 leukemia): 1.93 µM
TGI (RXF 393 renal): 6.63 µM
TGI (RXF-631 renal): 0.377 µM
TGI (SF-268 CNS): 13.6 µM
TGI (SF-295 CNS): 35.8 µM
TGI (SF-539 CNS): 14.8 µM
TGI (SK-MEL-2 melanoma): 19.3 µM
TGI (SK-MEL-28 melanoma): 6.48 µM
TGI (SK-MEL-5 melanoma): 6.71 µM
TGI (SK-OV-3 ovarian): 28.6 µM
TGI (SN12C renal): 2.85 µM
TGI (SNB-19 CNS): 50 µM
TGI (SNB-75 CNS): 9.6 µM
TGI (SNB-78 CNS): 6.12 µM
TGI (SR leukemia): 0.289 µM
TGI (SW-620 colon): 0.517 µM
TGI (T-47D breast): 15.2 µM
TGI (TK-10 renal): 8.04 µM
TGI (U251 CNS): 14.9 µM
TGI (UACC-257 melanoma): 3.5 µM
TGI (UACC-62 melanoma): 11.2 µM
TGI (UO-31 renal): 22.9 µM
TGI (XF 498 CNS): 2.11 µM
